Results taken from patent US7384966B2, “2-arylbenzothiazole derivatives” (Pharminxo Limited, priority 2004, dated 2008).

System: HCC 2998
Experiment: MTT assay, 3 day exposure, HCC 2998
Format: cell-based
Conditions: Homo sapiens, HCC 2998, 72 h, HCC 2998 (colon), MTT, 3 day exposure, triplicate; read-out: GI50 values in cell lines, HCC 2998
Experimental: (§1) A range of compounds were evaluated in MTT assays following 3 day exposure against a panel of two human breast cancer cell lines MCF-7 (ER+) and MDA 468 (ER−), and two colon cancer cell lines KM12 and HCC 2998. In general the breast cell lines were more sensitive to the agents and the MDA 468 line the most sensitive of the four (Table 2). The benchmark active compound was 5-fluoro-2-(3,4-dimethoxyphenyl)benzothiazole (1) with GI50 values<0.1 nM against the two breast cell lines. […] The most interesting series of compounds were those combining a 5-fluoro group with two oxygenated substituents in the 3′,4′-positions where minor, seemingly conservative, structural changes were associated with a dramatic variations in activity (when compared to 1). […] In summary, this in vitro screen led to the identification of the fluorinated 2-(3,4-dimethoxyphenyl)benzothiazole structure as a novel antitumor pharmacophore with the 5-fluoro analogue (1) astride a pinnacle of activity.
(§2) The assays/methods used to generate the results referred to herein are well known to those skilled in the art and therefore it has not been necessary to describe them in detail.

**Q.** Which GI50 does the source give for `COc1ccc(-c2nc3cc(F)ccc3s2)cc1F` [Compound 25, 5-Fluoro-2-(3-fluoro-4-methoxyphenyl)benzothiazole] here?
**A.** The GI50 was 13700 nM.

Same assay, conditions: Homo sapiens, HCC 2998, HCC 2998 (colon), value in nM; read-out: GI50 values in cell lines, HCC 2998

**Q.** For `COc1ccc(-c2nc3cc(F)ccc3s2)c(OC)c1OC` [Compound 50, 2-(2,3,4-Trimethoxyphenyl)-5-fluorobenzothiazole], which GI50 is on record?
**A.** The GI50 was 203 nM.

System: MDA 468
Experiment: MTT assay, 3 day exposure, MDA 468
Format: cell-based
Conditions: Homo sapiens, 72 h; MDA 468 (breast), MTT, 3 day exposure, triplicate; read-out: GI50 values in cell lines, MDA 468
Experimental: as §1, §2

**Q.** For `CCOc1ccc(-c2nc3cc(F)ccc3s2)cc1OCC` [Compound 46, 2-(3,4-Diethoxyphenyl)-5-fluorobenzothiazole], which GI50 is on record?
**A.** Its GI50 is 55 nM.

**Q.** For `COc1ccc(-c2nc3cc(F)ccc3s2)cc1F` [Compound 25, 5-Fluoro-2-(3-fluoro-4-methoxyphenyl)benzothiazole], which GI50 is on record?
**A.** The GI50 was 640 nM.

Same assay, conditions: Homo sapiens; MDA 468 (breast), value in nM; read-out: GI50 values in cell lines, MDA 468

**Q.** With `COc1ccc(-c2nc3cc(F)ccc3s2)c(OC)c1OC` [Compound 50, 2-(2,3,4-Trimethoxyphenyl)-5-fluorobenzothiazole] as the compound, how does the GI50 read?
**A.** Its GI50 is 336 nM.

System: not given
Experiment: not given
Conditions: not given

**Q.** Which melting point does the source give for `COc1ccc(-c2nc3cc(F)ccc3s2)cc1OC(=O)c1ccccc1` [Compound 14, 2-(3-Benzoyloxy-4-methoxyphenyl)-5-fluorobenzothiazole] here?
**A.** The melting point was 160 °C.

**Q.** With `COc1ccc(-c2nc3cc(F)ccc3s2)cc1OC(=O)c1ccccc1Cl` [Compound 15, 2-[3-(2-Chlorobenzoyloxy)-4-methoxyphenyl]-5-fluorobenzothiazole] as the compound, how does the melting point read?
**A.** Its melting point is 190 °C.

**Q.** Which melting point does the source give for `COc1cc(-c2nc3cc(F)ccc3s2)ccc1O` [Compound 6, 5-Fluoro-2-(4-hydroxy-3-methoxyphenyl)benzothiazole] here?
**A.** Its melting point is 156 °C.

**Q.** For `COc1ccc(-c2nc3cc(F)ccc3s2)c(OC)c1OC` [Compound 50, 2-(2,3,4-Trimethoxyphenyl)-5-fluorobenzothiazole], which melting point is on record?
**A.** Its melting point is 109 to 110 °C.

**Q.** For `CCC(=O)Oc1cc(-c2nc3cc(F)ccc3s2)ccc1OC` [Compound 13, 5-Fluoro-2-(3-propionyloxy-4-methoxyphenyl)benzothiazole], which melting point is on record?
**A.** Its melting point is 150 °C.

**Q.** With `COc1cc(-c2nc3cc(F)ccc3s2)ccc1OC(=O)N1CCOCC1` [Compound 20, 5-Fluoro-2-[4-(morpholin-4-ylcarbonyloxy)-3-methoxyphenyl]benzothiazole] as the compound, how does the melting point read?
**A.** The melting point was 126 °C.

**Q.** For `COc1ccc(-c2nc3cc(F)ccc3s2)cc1OC(C)=O` [Compound 11, 2-(3-Acetoxy-4-methoxyphenyl)-5-fluorobenzothiazole], which melting point is on record?
**A.** The melting point was 190 °C.

**Q.** With `COc1ccc(-c2nc3cc(F)ccc3s2)cc1OC(=O)c1ccc([N+](=O)[O-])cc1` [Compound 18, 5-Fluoro-2-[3-(4-nitrobenzoyloxy)-4-methoxyphenyl]benzothiazole] as the compound, how does the melting point read?
**A.** Its melting point is 198 °C.

**Q.** For `COc1ccc(-c2nc3cc(F)ccc3s2)cc1OC(=O)c1cccc([N+](=O)[O-])c1` [Compound 17, 5-Fluoro-2-[3-(3-nitrobenzoyloxy)-4-methoxyphenyl]benzothiazole], which melting point is on record?
**A.** The melting point was 212 °C.

**Q.** For `CCOc1ccc(-c2nc3cc(F)ccc3s2)cc1OCC` [Compound 46, 2-(3,4-Diethoxyphenyl)-5-fluorobenzothiazole], which melting point is on record?
**A.** The melting point was 109 to 113 °C.

**Q.** With `CCCC(=O)Oc1cc(-c2nc3cc(F)ccc3s2)ccc1OC` [Compound 47, 2-(3-Butyroyloxy-4-methoxyphenyl)-5-fluorobenzothiazole] as the compound, how does the melting point read?
**A.** Its melting point is 125 °C.

**Q.** For `COc1ccc(-c2nc3cc(F)ccc3s2)cc1OC(=O)c1ccccc1Br` [Compound 16, 2-[3-(2-Bromobenzoyloxy)-4-methoxyphenyl]-5-fluorobenzothiazole], which melting point is on record?
**A.** Its melting point is 220 to 223 °C.

**Q.** Which melting point does the source give for `Oc1ccc(-c2nc3cc(F)ccc3s2)cc1O` [Compound 9, 5-Fluoro-2-(3,4-dihydroxyphenyl)benzothiazole] here?
**A.** Its melting point is 197 °C.

**Q.** For `COc1cc(-c2nc3cc(F)ccc3s2)ccc1OC(=O)c1cccc([N+](=O)[O-])c1` [Compound 21, 5-Fluoro-2-[4-(3-nitrobenzoyloxy)-3-methoxyphenyl]benzothiazole], which melting point is on record?
**A.** Its melting point is 190 °C.

**Q.** With `COc1ccc(-c2nc3cc(F)ccc3s2)cc1F` [Compound 25, 5-Fluoro-2-(3-fluoro-4-methoxyphenyl)benzothiazole] as the compound, how does the melting point read?
**A.** The melting point was 157 to 159 °C.

System: MCF-7, MDA 468, KM12 and HCC 2998
Experiment: MTT assay, panel of four cell lines, results in words
Format: cell-based, human
Conditions: compared to compound 1
Experimental: as §1

**Q.** For `COc1cc(-c2nc3cc(F)ccc3s2)ccc1O` [Compound 6, 5-Fluoro-2-(4-hydroxy-3-methoxyphenyl)benzothiazole], which “growth inhibitory potency in words” value is on record?
**A.** Its value is “dyschemotherapeutic effect”.

**Q.** For `CCOc1ccc(-c2nc3cc(F)ccc3s2)cc1OCC` [Compound 46, 2-(3,4-Diethoxyphenyl)-5-fluorobenzothiazole], which “growth inhibitory potency in words” value is on record?
**A.** The value was “dyschemotherapeutic effect”.

**Q.** For `Oc1ccc(-c2nc3cc(F)ccc3s2)cc1O` [Compound 9, 5-Fluoro-2-(3,4-dihydroxyphenyl)benzothiazole], which “growth inhibitory potency in words” value is on record?
**A.** The value was “dyschemotherapeutic effect”.

System: MCF-7
Experiment: MTT assay, 3 day exposure, MCF-7
Format: cell-based
Conditions: Homo sapiens, MCF7, 72 h, MCF-7 (breast), MTT, 3 day exposure, triplicate; read-out: GI50 values in cell lines, MCF-7
Experimental: as §1, §2

**Q.** Which GI50 does the source give for `CCOc1ccc(-c2nc3cc(F)ccc3s2)cc1OCC` [Compound 46, 2-(3,4-Diethoxyphenyl)-5-fluorobenzothiazole] here?
**A.** The GI50 was 0.7 nM.

**Q.** Which GI50 does the source give for `COc1ccc(-c2nc3cc(F)ccc3s2)cc1F` [Compound 25, 5-Fluoro-2-(3-fluoro-4-methoxyphenyl)benzothiazole] here?
**A.** The GI50 was 870 nM.

Same assay, conditions: Homo sapiens, MCF7, MCF-7 (breast), value in nM; read-out: GI50 values in cell lines, MCF-7

**Q.** For `COc1ccc(-c2nc3cc(F)ccc3s2)c(OC)c1OC` [Compound 50, 2-(2,3,4-Trimethoxyphenyl)-5-fluorobenzothiazole], which GI50 is on record?
**A.** The GI50 was 157 nM.

**Q.** With `CCOc1ccc(-c2nc3cc(F)ccc3s2)cc1OCC` [Compound 46, 2-(3,4-Diethoxyphenyl)-5-fluorobenzothiazole] as the compound, how does the GI50 read?
**A.** The GI50 was 0.7 nM.

System: KM 12
Experiment: MTT assay, 3 day exposure, KM12
Format: cell-based, human
Conditions: Homo sapiens, KM12, 72 h, KM 12 (colon), MTT, 3 day exposure, triplicate; read-out: GI50 values in cell lines, KM 12
Experimental: as §1, §2

**Q.** For `CCOc1ccc(-c2nc3cc(F)ccc3s2)cc1OCC` [Compound 46, 2-(3,4-Diethoxyphenyl)-5-fluorobenzothiazole], which GI50 is on record?
**A.** Its GI50 is 38500 nM.

**Q.** With `COc1ccc(-c2nc3cc(F)ccc3s2)cc1F` [Compound 25, 5-Fluoro-2-(3-fluoro-4-methoxyphenyl)benzothiazole] as the compound, how does the GI50 read?
**A.** Its GI50 is 20600 nM.

Same assay, conditions: KM 12 (colon), value in nM; read-out: GI50 values in cell lines, KM 12

**Q.** For `COc1ccc(-c2nc3cc(F)ccc3s2)c(OC)c1OC` [Compound 50, 2-(2,3,4-Trimethoxyphenyl)-5-fluorobenzothiazole], which GI50 is on record?
**A.** The GI50 was 2905.3 nM.
